Key:
[1] = system: human MOLM-13 (AML) xenograft tumor; assay: Systemic MOLM-13 AML mouse xenograft model; format: in vivo, NOD SCID mice
Description: The comparison among three or more groups uses one-way ANOVA. If the F value has a significant difference, multiple comparisons should be carried out after the ANOVA analysis. All data analysis uses SPSS 18.0. Prism (the sixth version) is used for graphing. Attune N×T flow cytometer (Thermo Fisher Scientific Inc.) is used for analyzing tumor infiltrating lymphocytes. Data acquisition and analysis use Analyst Software 1.6.3 work station (AB sciex, Ontario, Canada). For MOLM-13 systemic model, the death date of the last mouse is used for analyzing the median total survival and generating the Kaplan-Meier curve. Logarithmic rank test and Bonferroni multiple test are used for comparing the survival curves of different treatment groups.
For systemic AML model, six- to eight-week-old female NOD SCID mice are pretreated with cyclophosphamide (150 mg/kg, intraperitoneally) continuously for two days. Then the MOLM-13 systemic AML xenograft model is established by inoculating 1×10^7 cells into the caudal vein intravenously.
For systemic AML model, the six- to eight-week-old female NOD SCID mice are pretreated with cyclophosphamide (150 mg/kg, intraperitoneally) continuously for two days. Then the MOLM-13 systemic AML xenograft model is established by inoculating 1×10^7 cells into the caudal vein intravenously. Cells grow 3 days, then are randomly divided into groups for treatment of a single drug or drugs in combination using a carrier, compound 2 (50 mg/kg, is taken orally each day for 7 days), and Aza (1.5 mg/kg, intravenous injection each day for 7 days). In the treatment process and after the treatment is completed, the mice are monitored for the occurrence of hind leg paresis (HLP) or the abdominal swelling caused by disease progression, and a body weight loss >20%.
A systemic MOLM-13 mouse xenograft model is established, and the anti-leukemia effect of compound 2 following the administration regimen of 80 mg/kg dosage, orally (po), and once every two days (q2d) is evaluated in the model (corresponding to the number 57 regimen in table 7). The experiment has two groups, and 15 animals in each group, in one group, 5 animals are used for the analysis of the proportion of CD45+ AML cells, and the remaining 10 animals are used for recording the living condition of the mice. 18 days after the cell inoculation, according to the experimental regimen, 5 animals are selected randomly from each group, bone marrow and spleen are collected, the proportion of human CD45+ AML cells in bone marrow and spleen is analyzed using flow cytometry to evaluate the disease burden of animals.
Systemic tumor model is established by inoculating MOLM-13 tumor cells through caudal vein, the administration starts on the third day after the cell inoculation, and the day of the administration is defined as the first day. Compound 2 is administered following 30 mg/kg, q2d regimens for 21 days. Azacitidine is administered following 1.5 mg/kg, qd regimens for seven days (corresponding to the number 81 regimen in table 7). […]

A549 = assay: CTG cell proliferation experiment, NSCLC; format: cell-based; conditions: Homo sapiens; A549, STK11 and KRAS co-mutated; 72 hours
Procedure: (§1) For the combined experiment, the final volume of 2 test substances is 5 μl/well.
(§2) The nonlinear regression data analysis method of Graphpad Prism 6.0 software ([…]) is used for calculating IC50.
(§3) For the combined experiment, the average fluorescence value of the 3 repeated wells of the single drug control is normalized for calculating cell survival rate.

NCI-H2122 = assay: CTG cell proliferation experiment, NSCLC; format: cell-based; conditions: Homo sapiens; NCI-H2122, STK11 and KRAS co-mutated; 72 hours
Procedure: as §1, §2, §3

NCI-H460 = assay: CTG cell proliferation experiment, NSCLC; format: cell-based; conditions: Homo sapiens; NCI-H460, STK11 and KRAS co-mutated; 72 hours
Procedure: as §1, §2, §3

MV-4-11 = assay: CellTiter-Glo (CTG) cell proliferation experiment; format: cell-based; conditions: Homo sapiens, MV4-11, TP53 wt, FLT3-ITD, 72 hours, read-out: IC50 values, nM (Mean ± SD, n = 2 or 3)
MOLM-13 = assay: CellTiter-Glo (CTG) cell proliferation experiment; format: cell-based; conditions: Homo sapiens, TP53 wt, FLT3-ITD, 72 hours, read-out: IC50 values, nM (Mean ± SD, n = 2 or 3)
[2] = 80 mg/kg, p.o., q2d × 3 w, versus vehicle
[3] = 80 mg/kg, po, q2d, 18 days after cell inoculation

With CCN1[C@@H](C(=O)NC23CCC(C(=O)O)(CC2)CC3)[C@H](c2cccc(Cl)c2F)[C@]2(C(=O)Nc3cc(Cl)ccc32)C12CCCCC2 [Compound 2] the Median survival ([1]; 80 mg/kg, p.o., q2d × 3 w, vehicle 18.5 days) was 37.0 days, the “Prolonged days of survival” value [1, 2] was 18.5 days and the “prolongation of median survival” value [1, 2] was 100%. The “proportion of human CD45+ AML cells in bone marrow” value [1, 3] was “less than 0.1%”, the “proportion of human CD45+ AML cells in spleen” value [1, 3] was “less than 0.1%” and the “Median survival” value ([1]; Compound 2 30 mg/kg q2d 21 days, Azacitidine 1.5 mg/kg qd seven days, vehicle 16 days) was 24 days. For the same compound, the “Prolonged survival” value ([1]; Compound 2 30 mg/kg q2d 21 days, Azacitidine 1.5 mg/kg qd seven days, versus vehicle) was 8 days, the minimum effective dosage ([1]; compound 2 alone, human MOLM-13 systemic xenograft) was 20 mg/kg and the IC50 (A549) was 33 nM. The IC50 (NCI-H2122) was 79 nM, the IC50 (NCI-H460) was 330 nM and the IC50 (MV-4-11) was 166 ± 42.4 nM. The IC50 (MOLM-13) was 26.8 ± 4.9 nM.

Reference: patent US12194024B2, “Pharmaceutical composition of MDM2 inhibitor and use thereof for preventing and/or treating disease” (ASCENTAGE PHARMA (SUZHOU) CO., LTD., priority 2019, dated 2025)
